Assay [1] relates to LAD2 cells. The assay is described as follows: β-hexosaminidase (β-hex) release assay, peptide solutions. Format: cell-based, human. The conditions noted are these: 30 min. On the procedure:
LAD2 (Laboratory of Allergic Diseases 2) human mast cells were incubated in StemPro-34 SFM medium (Life Technologies, Rockville, Md.) supplemented with 2 mM L-glutamine, 100 I/ml penicillin, 50 μg/ml streptomycin, 100 ng/ml recombinant human SCF (Peprotech, Rocky Hill, N.J.). Cells were maintained at 0.1×10^6 cells/ml at 37° C. and 5% CO2. Cell suspensions were isolated via centrifugation (200 g, 5 min, at room temperature) and media was replaced every 3-7 days. For each well, 0.25×10^5 LAD2 cells were washed and resuspended in 90 μl HEPES buffer (10 mM, with 0.4% BSA, pH 7.4), and activated by adding 10 μl peptide solutions (PAMP-12 […], (RADA)4 (SEQ ID NO: 1) and (RADA)4-GG-(PAMP-12) (SEQ ID NO: 2)) in PBS (1×, pH 7.4) for 30 min at 37° C., the final concentrations of peptide are 0, 0.01, 0.1, 1, 10, 20, 50, 100 μM respectively. β-hex release was quantified through analysis of the hydrolysis of p-nitrophenyl N-acetyl-b-D-glucosamide (Sigma Aldrich, Oakville, ON, Canada) in 0.1 M sodium citrate buffer (pH 4.5) for both the supernatant and in total cell lysates solubilized with 0.01% Triton X-100 for 90 min at 37° C. The reaction was stopped by adding glycine buffer (pH 10.7). Read absorbance at 405 nm with reference filter at 620 nm. The percent-age of β-hex released into the supernatant was calculated by the β-hex contents of supernatant and cell lysate.

In assay [2] the test system is LAD2 cells. The assay is described as follows: β-hex release assay, co-culture with well insert (0.2 μm pore size filter). It is filed as cell-based, human. To be noted: 30 min. On the procedure: To evaluate the immobilization effect of (RADA)4-GG-(PAMP-12) (SEQ ID NO: 2) in the matrices. As shown in FIG. 6 (A), 0.25×10^5 LAD2 cells in 100 μl HEPES buffer (10 mM, with 0.4% BSA, pH 7.4) were co-incubated with well inserts that contain 50 μl of self-assembling matrix (20% and 100% w/w of (RADA)4-GG-(PAMP-12) (SEQ ID NO: 2)) or PAMP-12 (SEQ ID NO: 3) solution in HEPES buffer (10 mM, with 0.4% BSA, pH 7.4) with the corresponding concentration (0.29 and 1.46 mM respectively). After 30 min incubation, inserts were removed, and the β-hex release was measured as described.

As for `CC(=O)N[C@@H](CCCNC(=N)N)C(=O)N[C@@H](C)C(=O)N[C@@H](CC(=O)O)C(=O)N[C@@H](C)C(=O)N[C@@H](CCCNC(=N)N)C(=O)N[C@@H](C)C(=O)N[C@@H](CC(=O)O)C(=O)N[C@@H](C)C(=O)N[C@@H](CCCNC(=N)N)C(=O)N[C@@H](C)C(=O)N[C@@H](CC(=O)O)C(=O)N[C@@H](C)C(=O)N[C@@H](CCCNC(=N)N)C(=O)N[C@@H](C)C(=O)N[C@@H](CC(=O)O)C(=O)N[C@@H](C)C(=O)NCC(=O)NCC(=O)N[C@@H](Cc1ccccc1)C(=O)N[C@@H](CCCNC(=N)N)C(=O)N[C@@H](CCCCN)C(=O)N[C@@H](CCCCN)C(=O)N[C@@H](Cc1c[nH]c2ccccc12)C(=O)N[C@@H](CC(N)=O)C(=O)N[C@@H](CCCCN)C(=O)N[C@@H](Cc1c[nH]c2ccccc12)C(=O)N[C@@H](C)C(=O)N[C@@H](CC(C)C)C(=O)N[C@@H](CO)C(=O)N[C@@H](CCCNC(=N)N)C(N)=O` [(RADA)4-GG-(PAMP-12)], the “LAD2 degranulation (β-hex release)” value in the assay on LAD2 cells [1] (peptide solutions, various concentrations, compared with PBS) is reported as “induced significant degranulation”. Also, in the assay on LAD2 cells [1] (solution free peptide, 10 μM), the “β-hex release (plateau)” value is around 75%. Moreover, the “degranulation of LAD2 (β-hex release)” value came to 11.1±1.1% in the assay with LAD2 cells [2] (0.5% w/v matrix with 20% w/w (RADA)4-GG-(PAMP-12) in insert) and 59.6±3.1% in the assay with LAD2 cells [2] (matrix of 100% w/w (RADA)4-GG-(PAMP-12) in insert).

The values above are taken from patent US11370822B2, “Self-assembling peptide for activating human mast cells” (The Governors of the University of Alberta, priority 2017, dated 2022).
